Patent US11000505B2 (priority 2010, dated 2021)
In brackets after ≈: the same amount, converted by molar mass.

Columns and labels:
pial artery [1] = format: in vivo, piglets
ERK/MAPK = experiment: CSF pERK/ERK after pretreatment by ELISA (Example 3); format: in vivo, piglets; conditions: 30 minutes after pretreatment
basilar artery = experiment: Subarachnoid hemorrhage model (Example 8); format: in vivo
[2] = Solubility in other solvents; conditions: thermodynamic from solid
cGMP = cGMP in CSF by ELISA (Example 1); format: in vivo, newborn pigs
pial artery [3] = conditions: 10%-16% changes compared to the baseline
pial artery [4] = format: in vivo, newborn pigs
[5] = Solubility in cyclodextrin solutions (HPLC)
[6] = system: middle cerebral artery occlusion (MCAO); conditions: mouse, in vivo
[7] = Physical and chemical properties: pKa; conditions: Non-ionizable
ERK = experiment: CSF ERK activity (pERK/ERK) after HI by ELISA (Example 2); format: in vivo, newborn pigs; conditions: 60 min after HI; 10 μg/kg i.v. at 0 or 30 min after HI
Experimental: Newborn pigs (1-5 days old, 1.2-1.5 kg) of both sexes were used in this study. The animal experimental protocol was approved by the Institutional Animal Care and Use Committee of the University of Pennsylvania. As described previously, Isoflurane (1 to 2 minimum alveolar concentration) was initially used for anesthesia induction, followed by α-chloralose (30-50 mg/kg supplemented with 5 mg/kg/hr intravenously) for maintenance of anesthesia. After tracheotomy, the animals were initially ventilated with room air and kept warm with heating pad to maintain the rectal temperature at 37-39° C. Bilateral femoral arteries were catheterized to monitor the blood pressure, blood gas tensions and pH. The femoral vein was catheterized for medication administration. A closed cranial window, consisting of a steel ring with a glass cover slip, connecting to 3 ports, was placed for direct pial artery visualization and diameter measurement. Small pial arteries (120 to 160 μm) and arterioles (50 to 70 μm) were identified under a microscope, visualized on a monitor connected to the microscope, and measured via a video microscaler (model VPA 550, For-A-Corp., Los Angeles, Calif.). […]
ERK activity were then determined from frozen CSF samples described above. The levels of pERK and ERK were measured by ELISA kits (Enzo Life Sciences International, Inc., Plymouth Meeting, Pa.).

pial artery [8] = conditions: pig, in vivo
[9] = SB203580 10 μM topical 30 min before salvinorin A
[10] = SP600125 1 μM topical 30 min before salvinorin A
[11] = U0126 1 mg/kg i.v. 30 min before salvinorin A
[12] = pretreatment 10 μg/kg i.v. 30 min before H/I
[13] = 10 μg/kg i.v. co-administrated with nor-BIN 1 μM topical
[14] = 10 μg/kg i.v. immediately or 30 min after HI, 60 min after HI

Structure (SMILES): COC(=O)[C@@H]1C[C@H](OC(C)=O)C(=O)[C@H]2[C@@]1(C)CC[C@H]1C(=O)O[C@H](c3ccoc3)C[C@]21C [Salvinorin A]
- preserved response to hypercapnia with SB203580 (pial artery [1]; [9]): No significant change in the preservative effects
- preserved response to hypotension with SB203580 (pial artery [1]; [9]): no significantly changes
- preserved response to hypercapnia with SP600125 (pial artery [1]; [10]): No significant change in the preservative effects
- preserved response to hypotension with SP600125 (pial artery [1]; [10]): no significantly changes
- preserved response to hypercapnia with U0126 (pial artery [1]; [11]): abolished by U0126
- preserved response to hypotension with U0126 (pial artery [1]; [11]): abolished by U0126
- pial artery dilation response to hypercapnia after hypoxia/ischemia (pial artery [1]; [12]): preserved the dilation response of pial artery to hypercapnia
- pial artery dilation response to hypotension after hypoxia/ischemia (pial artery [1]; [12]): preserved the dilation response of pial artery to hypotension
- ratio of pERK/ERK in CSF (ERK/MAPK): increased significantly
- ratio of pERK/ERK in CSF with U0126 (ERK/MAPK; U0126 30 minutes before salvinorin): unchanged
- neurological score (basilar artery; 24 hour after SAH): no significant effect on the neurological score
- diameter of the basilar artery (basilar artery; 24 hours after SAH, H&E): increased the diameter
- thickness of the wall of the basilar artery (basilar artery; 24 hours after SAH, H&E): decreased the thickness of the wall
- solubility ([2]; 1,2-propanediol, organic solvent or mixture): 59 µg/mL (≈ 136 µM)
- solubility ([2]; 1.25% Polysorbate 80 and […] Solutol HS15, aqueous with cosolvent or surfactant or cyclodextrin): 25 µg/mL (≈ 57.8 µM)
- solubility ([2]; 2-propanol, organic solvent or mixture): 22 µg/mL (≈ 50.9 µM)
- solubility ([2]; 5% Solutol HS15, aqueous with cosolvent or surfactant or cyclodextrin): 26 µg/mL (≈ 60.1 µM)
- solubility ([2]; 5% Vitamin E TPGS, aqueous with cosolvent or surfactant or cyclodextrin): 45 µg/mL (≈ 104 µM)
- solubility ([2]; 10% Tetraglycol, aqueous with cosolvent or surfactant or cyclodextrin): < 2 µg/mL
- solubility ([2]; 10% bile salts, aqueous with cosolvent or surfactant or cyclodextrin): < 2 µg/mL
- solubility ([2]; DMSO, organic solvent or mixture): > 1000 µg/mL
- solubility ([2]; N,N-dimethylacetamide, organic solvent or mixture): > 5000 µg/mL
- solubility ([2]; N-methylpyrolidinone, organic solvent or mixture): > 10000 µg/mL
- solubility ([2]; […] Polysorbate 80, aqueous with cosolvent or surfactant or cyclodextrin): < 2 µg/mL
- solubility ([2]; ethanol, organic solvent or mixture): > 1000 µg/mL
- solubility ([2]; glyceryl monocaprylate, oil or lipid): < 2 µg/mL
- solubility ([2]; water): < 2 µg/mL
- cGMP in CSF (cGMP; 10 min after administration): elevated cGMP in CSF
- cGMP in CSF in presence of L-NNA (cGMP; L-NNA pretreatment): L-NNA blocked the elevation of the cGMP
- cGMP in CSF in presence of norbinaltorphimine (cGMP; norbinaltorphimine pretreatment, 10 nM and 1 μM): Norbinaltorphimine blocked the elevation of cGMP
- concentration required to effectively dilate pial arteries (pial artery [3]): 10 nM
- pial artery dilation response to hypercapnia after HI with nor-BIN (pial artery [4]; [13]): abolished completely
- pial artery dilation response to hypotension after HI with nor-BIN (pial artery [4]; [13]): abolished
- pial artery dilation response to hypercapnia after HI (pial artery [4]; [14]): preserved the dilation responses of pial artery to hypercapnia
- pial artery dilation response to hypotension after HI (pial artery [4]; [14]): preserved the dilation responses of pial artery to hypotension
- solubility ([5]; 20% 2-hydroxypropyl-β-cyclodextrin (HPBCD) in water, aqueous with cosolvent or surfactant or cyclodextrin, thermodynamic from solid, Concentration (solubility), 20% HPBCD, mean ± SD): 122.5 ± 0.6 µg/mL (≈ 283 µM)
- solubility ([5]; 20% 2-hydroxypropyl-β-cyclodextrin (HPBCD) in water, aqueous with cosolvent or surfactant or cyclodextrin, thermodynamic from solid, maximum concentration (solubility), HPBCD): > 100 µg/mL
- solubility ([5]; 20% 2-hydroxypropyl-β-cyclodextrin (HPBCD) in water, aqueous with cosolvent or surfactant or cyclodextrin, thermodynamic from solid, solubility, 20% HPBCD): 122.5 ± 0.6 µg/mL (≈ 283 µM)
- solubility ([5]; 20% 2-hydroxypropyl-γ-cyclodextrin (HPGCD) in water, aqueous with cosolvent or surfactant or cyclodextrin, thermodynamic from solid, Concentration (solubility), 20% HPGCD, mean ± SD): 52.6 ± 0.9 µg/mL (≈ 122 µM)
- solubility ([5]; 20% 2-hydroxypropyl-γ-cyclodextrin (HPGCD) in water, aqueous with cosolvent or surfactant or cyclodextrin, thermodynamic from solid, solubility, 20% HPGCD): 52.6 ± 0.9 µg/mL (≈ 122 µM)
- solubility ([5]; 20% α-cyclodextrin sulfated sodium salt in water, aqueous with cosolvent or surfactant or cyclodextrin, thermodynamic from solid, Concentration (solubility), 20% α-Cyclodextrin sulfated sodium salt, mean ± SD): 1 ± 0.1 µg/mL
- solubility ([5]; 20% β-cyclodextrin sulfated sodium salt in water, aqueous with cosolvent or surfactant or cyclodextrin, thermodynamic from solid, Concentration (solubility), 20% β-Cyclodextrin sulfated sodium salt, mean ± SD): 1.5 ± 0.1 µg/mL
- solubility ([5]; water and α- or β-cyclodextrin sulfated sodium salt): only minimally soluble
- solubility ([5]; water, thermodynamic from solid, Concentration (solubility), 100% water, mean ± SD): 1 ± 0.1 µg/mL (≈ 2.31 µM)
- blood brain barrier disruption and vascular leakage (Evans blue extravasation) [6]: reduced the disruption and leakage
- infarct size (TTC stains) [6]: dose-dependent reduction
- motor function, grip strength score [6]: dose-dependent improvements in motor function
- neurobehavior [6]: dose-dependent improvements
- overall motor function [6]: improves overall motor function
- protective effect on leakage with norbinaltorphimine [6]: inhibited the protective effect of salvinorin A
- pKa [7]: None
- CSF ERK activity (pERK/ERK) (ERK): reduced to the baseline level
- blood pressure changes during administration (pial artery [8]): No significant blood pressure changes
- dilation of constricted pial arteries (pial artery [8]): dilated pial arteries under elevated tone conditions
- dilation of pial artery (pial artery [8]): dose dependently (10 nM, 1 μM) dilated the pial artery
- dilation response in presence of L-NNA (pial artery [8]): abolished by L-NNA
- dilation response in presence of glibenclamide (pial artery [8]): blocked the dilation effects of salvinorin A
- dilation response in presence of naloxone (pial artery [8]): blocked the dilation effects
- dilation response in presence of norbinaltorphimine (pial artery [8]): blocked the dilation effects
- dilation response in presence of sulpiride (pial artery [8]): had no effect on the dilation response
- dilation with repeated administration (pial artery [8]): sustained dilation effects was observed
